{
  "source": "ChEMBL document CHEMBL4152184",
  "about": "“NB 06: From a simple lysosomotropic aSMase inhibitor to tools for elucidating the role of lysosomes in signaling apoptosis and LPS-induced inflammation” (Eur J Med Chem, 2018)",
  "system": "MONO-MAC-6",
  "assay": "Upregulation of PTX3 mRNA expression level in LPS-stimulated human MONO-MAC-6 cells at 5 uM preincubated for 30 mins followed by LPS stimulation measured after 4 hrs by oligonucleotide array hybridization assay (reference value: 4.65)",
  "type": "functional",
  "data": [
    {"molecule": "COc1ccc(CCN(C)CCCn2c3ccccc3c3ccccc32)cc1", "values": [
      {"measurement": "fold change (FC)", "result": 1.91}
    ]}
  ]
}
